Source: ChEMBL document CHEMBL3885881, “DrugMatrix”

Organism: Rattus norvegicus
Assay: DrugMatrix - Regimen: Daily Repeat
Format: toxicity, organism-based, Sprague-Dawley
Design: regimen Daily Repeat, gender Male, age 6-8 weeks
Conditions: in vivo, po, route oral GAVAGE, vehicle .5 % CMC; for ABSOLUTE BASOPHIL / ABSOLUTE EOSINOPHIL / ABSOLUTE LYMPHOCYTE / ABSOLUTE MONOCYTE / ABSOLUTE SEGMENTED NEUTROPHIL / BASOPHIL / EOSINOPHIL / ERYTHROCYTE COUNT / HEMATOCRIT / HEMOGLOBIN / LEUKOCYTE COUNT / LYMPHOCYTE / MEAN CORPUSCULAR HEMOGLOBIN / MEAN CORPUSCULAR HEMOGLOBIN CONCENTRATION / MEAN CORPUSCULAR VOLUME / MONOCYTE / NEUTROPHIL / NUCLEATED RED BLOOD CELLS / PLATELET COUNT: tissue Blood; for ALANINE AMINOTRANSFERASE / ALBUMIN / ALKALINE PHOSPHATASE / ASPARTATE AMINOTRANSFERASE / BLOOD UREA NITROGEN / CARBON DIOXIDE / CHLORIDE / CHOLESTEROL / CREATINE PHOSPHOKINASE / CREATININE / GLUCOSE / LACTATE DEHYDROGENASE / LIPASE / PHOSPHORUS / POTASSIUM / SODIUM / TOTAL BILIRUBIN / TOTAL PROTEIN / URIC ACID: tissue Plasma
[1] = 100 mg/kg, 120 h, dose level Low, time 5 day
[2] = 1500 mg/kg, 72 h, dose level High, time 3 day
[3] = 1500 mg/kg, 120 h, dose level High, time 5 day

## O=C(O)CCc1nc(-c2ccccc2)c(-c2ccccc2)o1 [OXAPROZIN]
[1]
  ABSOLUTE BASOPHIL: 0 CELLS/uL
  ABSOLUTE EOSINOPHIL: 50.33 CELLS/uL
  ABSOLUTE LYMPHOCYTE: 11457 CELLS/uL
  ABSOLUTE MONOCYTE: 176 CELLS/uL
  ABSOLUTE SEGMENTED NEUTROPHIL: 1916.67 CELLS/uL
  BASOPHIL: 0%
  EOSINOPHIL: 0.33%
  ERYTHROCYTE COUNT: 5.42 x10E6/uL
  HEMATOCRIT: 34.23%
  HEMOGLOBIN: 13.93 G/DL
  LEUKOCYTE COUNT: 13.6 x10E3/uL
  LYMPHOCYTE: 84%
  MEAN CORPUSCULAR HEMOGLOBIN: 25.7 pg
  MEAN CORPUSCULAR HEMOGLOBIN CONCENTRATION: 40.67 G/DL
  MEAN CORPUSCULAR VOLUME: 63.1 fL
  MONOCYTE: 1.33%
  NEUTROPHIL: 14.33%
  NUCLEATED RED BLOOD CELLS: 0 /100WBC
  PLATELET COUNT: 1354 x10E3/uL
  ALANINE AMINOTRANSFERASE: 54.67 u/L
  ALBUMIN: 4.3 G/DL
  ALKALINE PHOSPHATASE: 418.33 u/L
  ASPARTATE AMINOTRANSFERASE: 81.67 u/L
  BLOOD UREA NITROGEN: 16 mg/dL
  CARBON DIOXIDE: 26.67 mmol/L
  CHLORIDE: 102.67 MEQ/L
  CHOLESTEROL: 57.67 mg/dL
  CREATINE PHOSPHOKINASE: 284.33 u/L
  CREATININE: 0.2 mg/dL
  GLUCOSE: 154 mg/dL
  LACTATE DEHYDROGENASE: 102.67 u/L
  LIPASE: 9.33 u/L
  PHOSPHORUS: 12.87 mg/dL
  POTASSIUM: 6.84 MEQ/L
  SODIUM: 145.4 MEQ/L
  TOTAL BILIRUBIN: 0.23 mg/dL
  TOTAL PROTEIN: 6.2 G/DL
  URIC ACID: 1.83 mg/dL
[2]
  ABSOLUTE BASOPHIL: 0 CELLS/uL
  ABSOLUTE EOSINOPHIL: 0 CELLS/uL
  ABSOLUTE LYMPHOCYTE: 11713.67 CELLS/uL
  ABSOLUTE MONOCYTE: 379.33 CELLS/uL
  ABSOLUTE SEGMENTED NEUTROPHIL: 2140.33 CELLS/uL
  BASOPHIL: 0%
  EOSINOPHIL: 0%
  ERYTHROCYTE COUNT: 5.87 x10E6/uL
  HEMATOCRIT: 37.03%
  HEMOGLOBIN: 14.47 G/DL
  LEUKOCYTE COUNT: 14.23 x10E3/uL
  LYMPHOCYTE: 82.33%
  MEAN CORPUSCULAR HEMOGLOBIN: 24.63 pg
  MEAN CORPUSCULAR HEMOGLOBIN CONCENTRATION: 39.07 G/DL
  MEAN CORPUSCULAR VOLUME: 63.17 fL
  MONOCYTE: 2.67%
  NEUTROPHIL: 15%
  NUCLEATED RED BLOOD CELLS: 0 /100WBC
  PLATELET COUNT: 1318.33 x10E3/uL
  ALANINE AMINOTRANSFERASE: 83 u/L
  ALBUMIN: 4.77 G/DL
  ALKALINE PHOSPHATASE: 581 u/L
  ASPARTATE AMINOTRANSFERASE: 86.67 u/L
  BLOOD UREA NITROGEN: 17.33 mg/dL
  CARBON DIOXIDE: 31.33 mmol/L
  CHLORIDE: 99.33 MEQ/L
  CHOLESTEROL: 70 mg/dL
  CREATINE PHOSPHOKINASE: 206 u/L
  CREATININE: 0.24 mg/dL
  GLUCOSE: 118 mg/dL
  LACTATE DEHYDROGENASE: 247.33 u/L
  LIPASE: 8.67 u/L
  PHOSPHORUS: 11.17 mg/dL
  POTASSIUM: 5.96 MEQ/L
  SODIUM: 145.9 MEQ/L
  TOTAL BILIRUBIN: 0.3 mg/dL
  TOTAL PROTEIN: 5.73 G/DL
  URIC ACID: 1.37 mg/dL
[3]
  ABSOLUTE BASOPHIL: 0 CELLS/uL
  ABSOLUTE EOSINOPHIL: 0 CELLS/uL
  ABSOLUTE LYMPHOCYTE: 19502.67 CELLS/uL
  ABSOLUTE MONOCYTE: 68 CELLS/uL
  ABSOLUTE SEGMENTED NEUTROPHIL: 3096 CELLS/uL
  BASOPHIL: 0%
  EOSINOPHIL: 0%
  ERYTHROCYTE COUNT: 5.71 x10E6/uL
  HEMATOCRIT: 35.9%
  HEMOGLOBIN: 14.6 G/DL
  LEUKOCYTE COUNT: 22.67 x10E3/uL
  LYMPHOCYTE: 86.33%
  MEAN CORPUSCULAR HEMOGLOBIN: 25.63 pg
  MEAN CORPUSCULAR HEMOGLOBIN CONCENTRATION: 40.7 G/DL
  MEAN CORPUSCULAR VOLUME: 63 fL
  MONOCYTE: 0.33%
  NEUTROPHIL: 13.33%
  NUCLEATED RED BLOOD CELLS: 0.33 /100WBC
  PLATELET COUNT: 1504 x10E3/uL
  ALANINE AMINOTRANSFERASE: 136.67 u/L
  ALBUMIN: 4.57 G/DL
  ALKALINE PHOSPHATASE: 427.67 u/L
  ASPARTATE AMINOTRANSFERASE: 109.67 u/L
  BLOOD UREA NITROGEN: 17.67 mg/dL
  CARBON DIOXIDE: 25.33 mmol/L
  CHLORIDE: 98.67 MEQ/L
  CHOLESTEROL: 83.67 mg/dL
  CREATINE PHOSPHOKINASE: 243 u/L
  CREATININE: 0.35 mg/dL
  GLUCOSE: 126 mg/dL
  LACTATE DEHYDROGENASE: 170.67 u/L
  LIPASE: 11.33 u/L
  PHOSPHORUS: 11.23 mg/dL
  POTASSIUM: 6.06 MEQ/L
  SODIUM: 143.63 MEQ/L
  TOTAL BILIRUBIN: 0.27 mg/dL
  TOTAL PROTEIN: 6 G/DL
  URIC ACID: 1.83 mg/dL
